{
  "source": "patent US11899025B2",
  "about": "“Pharmaceutical composition for preventing or treating neurodegenerative diseases comprising COX2 acetylating agent as active ingredient” (KYUNGPOOK NATIONAL UNIVERSITY INDUSTRY-ACADEMIC COOPERATION …, priority 2018, dated 2024)",
  "key": {"[1]": {"tested_on": "NP-C mice", "assay": "Niemann-Pick (NP-C) animal model: immunofluorescence, Rota-rod, Beam test", "type": "in vivo, mouse", "conditions": "1 month-old NPC mice, 5 mg/kg daily for 4 weeks, subcutaneous", "text": "It has been approved for mouse experiments by the Kyungpook National University Institutional Animal Care and Use Committee (IACUC). A transgenic mouse line overexpressing APPswe (hAPP695swe) or PS1 (presenilin-1M146V) based on C57BL/6 mice (Charles River, UK) was used. [Hereinafter, APP mouse: mouse overexpressing APPswe, PS1 mouse: mouse overexpressing presenilin-1M146V; GlaxoSmithKline]. As an Alzheimer's (AD) animal model, SphK1 tg (SphK1 gene overexpressing mouse) was crossed with APP mice and APP/PS1 mice to prepare APP/PS1/SphK1 tg mice. Niemanpick (NP-C) animal model, Balb/C (Orient, Wild type), NPC mutant mouse lacking NPC1 gene (Provided by Riken, Japan, NP-C mice; less weight than normal mice of the same age, and severe motor function loss from 4 to 6 weeks of age, limb tremors and seizures appear, and lifespan is approximately 9 to 10 weeks. Is) was used. As an animal model for amyotrophic lateral sclerosis (ALS), a transgenic mouse (FUS) line overexpressing RUS R521C based on C57BL/6 mice (Charles River, UK) was used.\nAfter fixing the cerebral and hippocampus of the mouse, anti-20G10 (mouse, 1:1000) against amyloid-β (Aβ) 42 and anti-G30 (rabbit, 1:1000) against Aβ 40, anti-MAP2 (chicken, 1:2000), anti-Synaptophysin (mouse, 1:100), anti-Synapsin1 (rabbit, 1:500), anti-PSD95 (mouse, 1:100), anti-Iba-1 (rabbit, 1:500), Anti-GFAP (rabbit, 1:500) was cultured together. The site was analyzed using a laser scanning confocal microscope or Olympus BX51 microscope equipped with Fluoview SV1000 imaging software (Olympus FV1000, Japan). Metamorph software (Molecular Devices) was used to quantify the percentage of the area of the stained area relative to the area of the total tissue.\nTo check the motor ability of each experimental group mice, a Rota-rod, Beam test, Tail suspension test, and Hanging wired test were performed. […] The endurance time of the experimental animal was measured in seconds, and the average value was recorded. […] In the Beam test, the time taken to move to the end point after placing the mouse at the start point of a 12 mm wide bar was measured. […]"}, "[2]": {"tested_on": "APP/PS1 neurons", "assay": "neuroinflammatory resolution factor (SPMs) secretion in APP/PS1 neurons after COX2 acetylating agent treatment", "type": "cell-based, mouse", "conditions": "10 nM; FIG. 8b", "experimental": "A commercially available ELISA kit (Biosource) was used, and the hemispheres of mice were homogenized and placed in a buffer containing 0.02M guanidine to prepare a sample for Aβ ELISA. In order to measure the neuroinflammatory resolution factor, conditioned media (CM) was prepared after culturing neurons from mouse cerebrum. Thereafter, according to the manufacturer's manual, ELISA for Aβ and SPM was performed.\nIn order to measure the neuroinflammatory resolution factor, after culturing neurons from mouse cerebrum, CM was prepared by treatment with 10 nM N-acetyl sphingosine 1 phosphate (Toronto Research chemicals, C262710) and N-acetyl sphingosine (Sigma, 01912). For COX2 acetylation analysis, neurons were cultured from mouse cerebrum and then treated with 2 uCi [^14C]N-acetyl sphingosine (ARC, ARC1024). In addition, for in vivo experiments, 7-month-old APP/PS1 mice were injected with 5 mg/kg N-acetyl sphingosine (Sigma, 01912), 1 mg/kg FTY720 and 3 uM S1P daily for 4 weeks via intraperitoneal injection. 1 month-old NPC mice were injected with 5 mg/kg N-acetyl sphingosine (Sigma, 01912) and 2-month-old FUS mice with 30 mg/kg N-acetyl sphingosine (Sigma, 01912) daily for 4 weeks via subcutaneous injection.\nFirst, in order to confirm whether the selected compounds promote the secretion of neuroinflammatory resolution factor in neurons, after treatment with N-acetyl sphingosine 1 phosphate or N-acetyl sphingosine in APP/PS1 neurons, the expression levels of neuroinflammatory resolution factor were confirmed. As a result, it was confirmed that the expression levels of LxA4 and RvE1 in neurons of APP/PS1 mice were recovered when treated with N-acetyl sphingosine 1 phosphate or N-acetyl sphingosine (FIG. 8b)."}, "[3]": {"target": "T1, COX2 (Homo sapiens, UniProt P35354)", "T1 sequence (P35354 18-604)": "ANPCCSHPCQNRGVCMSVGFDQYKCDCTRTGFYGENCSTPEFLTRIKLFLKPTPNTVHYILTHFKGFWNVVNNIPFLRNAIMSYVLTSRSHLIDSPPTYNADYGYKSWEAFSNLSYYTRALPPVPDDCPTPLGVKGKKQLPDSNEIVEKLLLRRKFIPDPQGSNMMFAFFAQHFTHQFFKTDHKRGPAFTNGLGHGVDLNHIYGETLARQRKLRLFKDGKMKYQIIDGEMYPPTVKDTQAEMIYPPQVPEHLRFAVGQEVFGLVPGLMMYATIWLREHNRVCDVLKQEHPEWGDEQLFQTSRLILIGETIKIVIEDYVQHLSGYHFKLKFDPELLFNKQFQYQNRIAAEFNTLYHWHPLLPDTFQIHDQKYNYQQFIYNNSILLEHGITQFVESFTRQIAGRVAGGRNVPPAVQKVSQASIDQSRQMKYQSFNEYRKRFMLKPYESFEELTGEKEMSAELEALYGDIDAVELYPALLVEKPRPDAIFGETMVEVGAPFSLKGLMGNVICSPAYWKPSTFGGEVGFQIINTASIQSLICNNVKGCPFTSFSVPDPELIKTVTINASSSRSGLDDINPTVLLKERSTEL", "assay": "LC-MS/MS identification of the COX2 acetylation site", "type": "biochemical", "conditions": "FIG. 8d", "experimental": "To confirm the acetylation site of COX2, the COX2 enzyme was precipitated with trichroloacetic acid (Merck) and dried. The dried extract was resuspended in 10 μL of 5M urea solution, and 0.1M ammonium bicarbonate buffer was incubated at 37° C. with 1 μg trypsin (Promega) for 16 hours. Then, the sample was treated with 1M DTT (GE Healthcare) at room temperature for 1 hour and then alkylated with 1M iodoacetamide (Sigma) for 1 hour. Protein samples were loaded onto a ZORBAX 300SB-C18 column for sequencing. Peptides were identified with BioTools 3.2 SR5 (Bruker Daltonics).\nIn addition, it was confirmed that serine 565 (S565) against the COX2 peptide 560-[…]-575 was acetylated in the presence of N-acetyl sphingosine (FIG. 8d)."}},
  "data": [
    {"smiles": "CCCCCCCCCCCCC/C=C/[C@@H](O)[C@H](CO)NC(C)=O", "note": "[N-acetyl sphingosine]", "values": [
      {"measurement": "microglia (Iba1) in brain cortex vs NP-C mice", "setting": "[1]; FIG. 10a", "result": "remarkable decrease"},
      {"measurement": "astrocytes (GFAP) in brain cortex vs NP-C mice", "setting": "[1]; FIG. 10b", "result": "remarkable decrease"},
      {"measurement": "exercise capacity (Rota-rod, Beam test) vs NP-C mice", "setting": "[1]; FIGS. 10c and d", "result": "improved"},
      {"measurement": "expression level of LxA4 in neurons of APP/PS1 mice", "setting": "[2]", "result": "recovered"},
      {"measurement": "expression level of RvE1 in neurons of APP/PS1 mice", "setting": "[2]", "result": "recovered"},
      {"measurement": "acetylation of serine 565 (S565) of COX2 peptide 560-GCPFTSFSVPDPELIK-575", "setting": "[3]", "result": "acetylated"}
    ]}
  ]
}
